Legend:
[1] = biological target: T1, p110α Type Ia human PI3K (Homo sapiens, UniProt P42336); test: In vitro enzyme assay (AlphaScreen), Test (a); format: biochemical; settings: recombinant enzyme, PI(4,5)P2 substrate, ATP 4 μM, read-out: IC50 versus p110α Type Ia human PI3K
T1 construct: full length DNA of each of the p110α, p110β and p110δ Type Ia human PI3K p110 isoforms; 6-His; made in house; Grp1 PH domain in E. coli
Excerpt: (a) In Vitro Enzyme Assay
The assay used AlphaScreen technology (Gray et al., Analytical Biochemistry, 2003, 313: 234-245) to determine the ability of test compounds to inhibit phosphorylation by recombinant Type I PI3K enzymes of the lipid PI(4,5)P2.
DNA fragments encoding human PI3K catalytic and regulatory subunits were isolated from cDNA libraries using standard molecular biology and PCR cloning techniques. The selected DNA fragments were used to generate baculovirus expression vectors. In particular, full length DNA of each of the p110α, p110β and p110δ Type Ia human PI3K p110 isoforms (EMBL Accession Nos. HSU79143, S67334, Y10055 for p110α, p110β and p110δ respectively) were sub-cloned into a pDEST10 vector (Invitrogen Limited, Fountain drive, Paisley, UK). The vector is a Gateway-adapted version of Fastbac1 containing a 6-His epitope tag. A truncated form of Type Ib human PI3K p110γ isoform corresponding to amino acid residues 144-1102 (EMBL Accession No. X8336A) and the full length human p85α regulatory subunit (EMBL Accession No. HSP13KIN) were also sub-cloned into pFastBac1 vector containing a 6-His epitope tag. The Type Ia p110 constructs were co-expressed with the p85α regulatory subunit. Following expression in the baculovirus system using standard baculovirus expression techniques, expressed proteins were purified using the His epitope tag using standard purification techniques.
DNA corresponding to amino acids 263 to 380 of human Grp1 PH domain was isolated from a cDNA library using standard molecular biology and PCR cloning techniques. The resultant DNA fragment was sub-cloned into a pGEX 4T1 E. coli expression vector containing a GST epitope tag (Amersham Pharmacia Biotech, Rainham, Essex, UK) as described by Gray et al., Analytical Biochemistry, 2003, 313: 234-245). The GST-tagged Grp1 PH domain was expressed and purified using standard techniques.
Test compounds were prepared as 10 mM stock solutions in DMSO and diluted into water as required to give a range of final assay concentrations. Aliquots (2 μl) of each compound dilution were placed into a well of a Greiner 384-well low volume (LV) white polystyrene plate (Greiner Bio-one, Brunel Way, Stonehouse, Gloucestershire, UK Catalogue No. 784075). […]
Biotinylated-DiC8-PI(3,4,5)P3 (50 nM; Cell Signals Inc., Catalogue No. 107), recombinant purified GST-Grp1 PH protein (2.5 nM) and AlphaScreen Anti-GST donor and acceptor beads (100 ng; Packard Bioscience Limited, Station Road, Pangbourne, Berkshire, UK, Catalogue No. 6760603M) were added and the assay plates were left for about 5 to 20 hours at ambient temperature in the dark. The resultant signals arising from laser light excitation at 680 nm were read using a Packard AlphaQuest instrument. […]

[2] = system: phosphorylation of Serine 473 in Akt; test: In vitro phospho-Ser473 Akt assay, Test (b); format: cell-based; settings: Homo sapiens, MDA-MB-468 cells, 2 hours incubation, read-out: IC50, inhibition of phosphorylation of Serine 473 in Akt
Protocol: (b) In Vitro Phospho-Ser473 Akt Assay
This assay determines the ability of test compounds to inhibit phosphorylation of Serine 473 in Akt as assessed using Acumen Explorer technology (Acumen Bioscience Limited), a plate reader that can be used to rapidly quantitate features of images generated by laser-scanning.
A MDA-MB-468 human breast adenocarcinoma cell line (LGC Promochem, Teddington, Middlesex, UK, Catalogue No. HTB-132) was routinely maintained at 37° C. with 5% CO2 up to a confluency of 70-90% in Dulbecco's modified Eagle's growth medium (DMEM; Invitrogen Limited, Paisley, UK Catalogue No. 41966-029) containing 10% heat-inactivated foetal calf serum (FCS; Sigma, Poole, Dorset, UK, Catalogue No. F0392) and 1% L-glutamine (Gibco, Catalogue No. 25030-024).
For the assay, the cells were detached from the culture flask using ‘Accutase’ (Innovative Cell Technologies Inc., San Diego, Calif., USA; Catalogue No. AT104) using standard tissue culture methods and resuspended in media to give 1.7×10^5 cells per ml. Aliquots (90 μl) were seeded into each of the inner 60 wells of a black Packard 96 well plate (PerkinElmer, Boston, Mass., USA; Catalogue No. 6005182) to give a density of ˜15000 cells per well. Aliquots (90 μl) of culture media were placed in the outer wells to prevent edge effects. The cells were incubated overnight at 37° C. with 5% CO2 to allow them to adhere.
On day 2, the cells were treated with test compounds and incubated for 2 hours at 37° C. with 5% CO2. Test compounds were prepared as 10 mM stock solutions in DMSO and serially diluted as required with growth media to give a range of concentrations that were 10-fold the required final test concentrations. Aliquots (10 μl) of each compound dilution were placed in a well (in triplicate) to give the final required concentrations. […]
All subsequent aspiration and wash steps were carried out using a Tecan 96 well plate washer (aspiration speed 10 mm/sec). […] An aliquot of PBS (50 μl) was added to each well and the plates were sealed with black plate sealers and the fluorescence signal was detected and analysed. […]

T1 sequence (P42336 whole entry, the tested form may be a part, canonical isoform): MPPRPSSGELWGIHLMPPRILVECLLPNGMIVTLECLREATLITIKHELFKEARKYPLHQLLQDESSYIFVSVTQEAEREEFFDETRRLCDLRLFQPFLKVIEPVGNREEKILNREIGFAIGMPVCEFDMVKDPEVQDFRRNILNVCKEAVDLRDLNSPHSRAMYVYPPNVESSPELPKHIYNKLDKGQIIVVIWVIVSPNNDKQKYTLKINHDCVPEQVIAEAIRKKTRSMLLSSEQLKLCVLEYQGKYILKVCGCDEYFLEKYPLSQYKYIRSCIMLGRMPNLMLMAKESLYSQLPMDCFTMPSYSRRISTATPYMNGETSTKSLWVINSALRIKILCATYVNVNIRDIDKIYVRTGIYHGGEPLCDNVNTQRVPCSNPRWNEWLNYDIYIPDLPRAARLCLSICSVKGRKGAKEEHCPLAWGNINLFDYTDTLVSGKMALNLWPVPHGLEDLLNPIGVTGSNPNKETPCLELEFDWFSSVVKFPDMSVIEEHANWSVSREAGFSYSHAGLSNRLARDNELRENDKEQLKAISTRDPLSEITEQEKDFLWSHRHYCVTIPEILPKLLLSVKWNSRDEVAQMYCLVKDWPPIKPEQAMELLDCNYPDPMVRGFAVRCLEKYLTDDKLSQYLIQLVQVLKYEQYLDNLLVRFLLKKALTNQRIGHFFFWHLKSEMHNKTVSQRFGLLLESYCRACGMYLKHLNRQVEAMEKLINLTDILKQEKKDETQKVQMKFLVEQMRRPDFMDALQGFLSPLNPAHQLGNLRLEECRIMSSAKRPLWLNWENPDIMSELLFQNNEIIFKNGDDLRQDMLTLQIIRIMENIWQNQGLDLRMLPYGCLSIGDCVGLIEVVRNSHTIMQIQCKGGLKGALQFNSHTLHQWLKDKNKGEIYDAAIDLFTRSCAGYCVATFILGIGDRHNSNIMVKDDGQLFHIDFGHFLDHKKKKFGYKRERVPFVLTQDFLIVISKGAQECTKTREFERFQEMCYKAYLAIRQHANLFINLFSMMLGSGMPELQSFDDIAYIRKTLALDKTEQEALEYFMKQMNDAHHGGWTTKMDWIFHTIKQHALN
T1 sequence (P27986 whole entry partner, the tested form may be a part, canonical isoform): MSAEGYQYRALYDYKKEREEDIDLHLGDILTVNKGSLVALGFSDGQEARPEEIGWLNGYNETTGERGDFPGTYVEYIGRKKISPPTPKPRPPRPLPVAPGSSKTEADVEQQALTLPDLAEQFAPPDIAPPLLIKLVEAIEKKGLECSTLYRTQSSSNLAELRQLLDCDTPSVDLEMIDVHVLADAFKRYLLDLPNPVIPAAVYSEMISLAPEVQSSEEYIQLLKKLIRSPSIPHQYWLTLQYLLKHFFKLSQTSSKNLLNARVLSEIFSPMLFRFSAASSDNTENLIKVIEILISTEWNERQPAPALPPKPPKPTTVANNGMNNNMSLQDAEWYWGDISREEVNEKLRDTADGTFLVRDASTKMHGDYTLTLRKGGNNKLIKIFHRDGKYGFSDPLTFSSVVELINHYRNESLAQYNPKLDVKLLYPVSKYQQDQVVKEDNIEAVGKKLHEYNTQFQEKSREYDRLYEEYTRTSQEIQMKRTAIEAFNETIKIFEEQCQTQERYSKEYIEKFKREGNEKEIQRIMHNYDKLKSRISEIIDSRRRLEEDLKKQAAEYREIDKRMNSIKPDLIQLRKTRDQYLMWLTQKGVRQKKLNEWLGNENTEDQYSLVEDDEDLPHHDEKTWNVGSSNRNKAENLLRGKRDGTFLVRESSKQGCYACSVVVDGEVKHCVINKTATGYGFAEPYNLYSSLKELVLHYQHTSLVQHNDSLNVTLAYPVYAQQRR

Row | IC50 [1] [µM] | IC50 [2] [µM] | SMILES
1 | ~12 | ~28 | COc1ncc(-c2cc(N3CCOCC3)nc(-c3cccc(NC(C)=O)c3)n2)cn1 [Example 2, 2-(3-acetamidophenyl)-4-(2-methoxypyrimidin-5-yl)-6-morpholinopyrimidine]
2 | ~10 | ~50 | O=C(Nc1cccc(-c2nc(-c3ccc(CO)s3)cc(N3CCOCC3)n2)c1)C1CCNCC1 [Example 1, 4-(5-hydroxymethylthien-2-yl)-6-morpholino-2-(3-piperidin-4-ylcarbonylaminophenyl)pyrimidine]
3 | ~0.6 | – | O=C(Nc1cccc(-c2cc(N3CCOCC3)nc(-c3ccc(CO)o3)n2)c1)C1CCCNC1 (stereo not shown) [Example 4, 2-(5-hydroxymethylfuran-2-yl)-6-morpholino-4-(3-piperidin-3-ylcarbonylaminophenyl)pyrimidine]
4 | ~0.5 | ~1 | O=C(Nc1cccc(-c2nc(-c3ccc(CO)o3)cc(N3CCOCC3)n2)c1)C1CCNCC1 [Example 5, 4-(5-hydroxymethylfuran-2-yl)-6-morpholino-2-(3-piperidin-4-ylcarbonylaminophenyl)pyrimidine]

Reference: US7893063B2, “2,4,6-trisubstituted pyrimidines as phosphotidylinositol (PI) 3-kinase inhibitors and their use in the treatment of cancer” (AstraZeneca AB, priority 2004, dated 2011)
